Laboratory results: patent publication US20260116867A1, “PROTEOLYSIS TARGETING CHIMERAS FOR HUMAN PREGNANE X RECEPTOR AND FOR DEGRADATION OF GSPT1” (ST. JUDE CHILDREN'S RESEARCH HOSPITAL, priority 2022, published 2026)
“Also recorded” adds a separate entry of the source.

Legend:
GSPT1 = target: T1, GSPT1 (Homo sapiens, UniProt P15170+Q96SW2); assay: Western blot of GSPT1 protein in SNU—C4 3xFLAG-PXR KI cells; type: cell-based
T1 construct: endogenous in cells
Method: (§1) The following day, DMSO or compounds were added to result in 0.5% DMSO and the indicated compound concentrations, and cells were incubated for the indicated time points. Cells were lysed and subjected to western blotting as above using antibodies against FLAG (Sigma-Aldrich, cat. #F3165, 1:2,000 dilution), GSPT1 (Abcam, cat. #ab126090, 1:4,000 dilution), and R-Actin (Cell Signaling Technology, cat. #4967, 1:2,000 dilution).

[1] = Cytotoxicity assay (CellTiter-Glo, 72 h); type: cell-based, human; settings: human, SNU-C4 3xFLAG-PXR KI cells; read-out: half maximal cytotoxic concentration (CC50)
Method: (§2) The indicated cells (2.5×10^3/well in 40 μL RPMI with 10% FBS) were plated in the 384-well plates, resulting in 0.5% DMSO and the indicated concentrations of chemicals. After 72 h compound treatment, the CellTiter-Glo Luminescent Cell Viability Assay (Promega) and an EnVision microplate reader were used to assess cytotoxicity. Wells containing DMSO alone or 10 μM staurosporine served as negative and positive controls, respectively. The percent cell viability for each well was calculated using equation 1: […]

[2] = system: SNU—C4 3xFLAG-PXR KI cells; assay: Cytotoxicity assay (CellTiter-Glo, 72 h); type: cell-based, human; settings: SNU—C4 3xFLAG-PXR KI cells
Method: as §2

PXR [3] = target: T2, PXR (Homo sapiens, UniProt O75469); assay: cell-based hPXR antagonistic assay
T2 sequence (O75469 1-434): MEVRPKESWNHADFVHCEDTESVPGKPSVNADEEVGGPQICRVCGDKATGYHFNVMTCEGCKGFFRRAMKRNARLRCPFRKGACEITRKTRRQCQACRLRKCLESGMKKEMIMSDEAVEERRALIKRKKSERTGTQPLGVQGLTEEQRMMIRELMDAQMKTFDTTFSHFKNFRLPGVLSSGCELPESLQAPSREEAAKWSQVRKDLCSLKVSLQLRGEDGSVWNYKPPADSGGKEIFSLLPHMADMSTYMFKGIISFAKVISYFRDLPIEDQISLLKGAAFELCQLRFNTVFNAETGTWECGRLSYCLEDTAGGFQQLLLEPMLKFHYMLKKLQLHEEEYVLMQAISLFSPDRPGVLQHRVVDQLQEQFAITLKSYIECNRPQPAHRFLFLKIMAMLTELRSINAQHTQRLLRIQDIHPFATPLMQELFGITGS

HiBiT-FKBP12^F36V-PXR = target: T3, HiBiT-FKBP12^F36V-PXR (Homo sapiens, UniProt O75469+P62942, F37V); assay: HiBiT assay for degradation of overexpressed protein in HepG2 cells; type: cell-based; settings: HepG2, HiBiT-FKBP12^F36V-PXR, 24 h, FIG. 4A
T3 construct: expressed in transfected cells; host or cells: HepG2 cells (transient, Lipofectamine 3000)
Method: HepG2 cells (5×10^6 cells/dish) were plated in tissue culture-treated 10 cm dishes in 10 mL EMEM with 10% FBS. The next day, cells were transfected with 5 μg pcDNA3-HiBiT-FKBP^F36V-2xHA-PXR and either 5 μg pcDNA3 vector or 5 μg pcDNA3-HA-CRBN using Lipofectamine 3000 (Thermo Fisher Scientific). After 24 h, cells were trypsinized, resuspended in assay media, and plated in white tissue culture-treated 384-well plates (1.5×10^4 cells/well in 25 μL medium). […] The plates were incubated for 24 h, and the Nano-Glo HiBiT Lytic Detection System (Promega) and an EnVision microplate reader were used to measure HiBiT signal. Results are reported as fold change relative to DMSO control cells.
To establish a method for discovery of PXR degraders in the absence of a known PXR-degrading control, the degradation tag (dTAG) system was used. With this method, a protein of interest (PXR) is fused to a cytosolic prolyl isomerase, FKBP12, with Phe36 mutated to Val (FKBP12^F36V) (FIG. 2A). A PROTAC molecule, dTAG-13 (FIG. 2B), is then used to induce degradation of the fusion protein through recruitment of the CUL4-RBX1-DDB1-CRBN (CRL4^CRBN) E3 ubiquitin ligase, without affecting the cellular FKBP12 protein. An HA tag was added for western blot detection, and a HiBiT tag was fused to the N-terminus to allow high-throughput plate-based quantification of HiBiT-FKBP12^F36V-PXR protein levels (FIG. 2A). […] This was also observed when the HA tag was detected by western blot (FIG. 2D). The HiBiT detection was more sensitive to protein level changes than western blot, and, importantly, overexpression of CRBN was required to achieve dTAG-13-mediated degradation of the overexpressed HiBiT-FKBP12^F36V-PXR protein.

PXR RNA = PXR RNA level in SNU—C4 3xFLAG-PXR KI cells; type: cell-based, human
[4] = system: SNU—C4 3xFLAG-PXR KI cell lines stably expressing HA-tagged GSPT1^G575N; assay: Cytotoxicity assay in cells overexpressing degradation-resistant GSPT1 mutant; type: cell-based, human; settings: FIG. 7B-C
Method: Complete information for all plasmids is included in Table 1 below. […] Lentiviruses for pCDH-GSPT1 or pCDH-GSPT1^G575N were generated in 293T cells using psPAX2 and pMD2.G packaging vectors. The packaging vectors were gifts from Dr. Didier Trono (Addgene plasmid #12259 and 12260).
as §2

PXR [5] = target: T2, PXR; assay: Western blot of endogenous 3xFLAG-PXR protein in SNU—C4 3xFLAG-PXR KI cells; type: cell-based; set-up: To assess SJPYT-195 activity against endogenous PXR, CRISPR-Cas9 was used; endogenous in cells
Method: as §1

T1 sequence (P15170 1-637 isoform P15170-3): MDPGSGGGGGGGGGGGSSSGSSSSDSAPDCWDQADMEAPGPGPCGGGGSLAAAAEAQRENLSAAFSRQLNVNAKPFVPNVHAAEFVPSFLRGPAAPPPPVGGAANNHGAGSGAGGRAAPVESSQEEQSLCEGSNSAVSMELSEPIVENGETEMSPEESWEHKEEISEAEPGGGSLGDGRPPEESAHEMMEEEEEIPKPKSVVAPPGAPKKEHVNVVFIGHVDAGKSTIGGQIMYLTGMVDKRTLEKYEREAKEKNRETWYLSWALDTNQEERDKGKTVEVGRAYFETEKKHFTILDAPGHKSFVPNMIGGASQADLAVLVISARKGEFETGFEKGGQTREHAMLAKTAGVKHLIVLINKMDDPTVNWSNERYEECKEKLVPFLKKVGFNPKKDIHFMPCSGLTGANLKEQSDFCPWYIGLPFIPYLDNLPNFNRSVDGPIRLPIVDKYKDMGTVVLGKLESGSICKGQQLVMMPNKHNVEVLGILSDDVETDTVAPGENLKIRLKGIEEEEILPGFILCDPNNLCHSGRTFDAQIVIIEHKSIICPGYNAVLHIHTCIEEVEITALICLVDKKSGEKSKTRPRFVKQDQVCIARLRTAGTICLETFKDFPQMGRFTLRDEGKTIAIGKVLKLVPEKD
T1 sequence (Q96SW2 whole entry): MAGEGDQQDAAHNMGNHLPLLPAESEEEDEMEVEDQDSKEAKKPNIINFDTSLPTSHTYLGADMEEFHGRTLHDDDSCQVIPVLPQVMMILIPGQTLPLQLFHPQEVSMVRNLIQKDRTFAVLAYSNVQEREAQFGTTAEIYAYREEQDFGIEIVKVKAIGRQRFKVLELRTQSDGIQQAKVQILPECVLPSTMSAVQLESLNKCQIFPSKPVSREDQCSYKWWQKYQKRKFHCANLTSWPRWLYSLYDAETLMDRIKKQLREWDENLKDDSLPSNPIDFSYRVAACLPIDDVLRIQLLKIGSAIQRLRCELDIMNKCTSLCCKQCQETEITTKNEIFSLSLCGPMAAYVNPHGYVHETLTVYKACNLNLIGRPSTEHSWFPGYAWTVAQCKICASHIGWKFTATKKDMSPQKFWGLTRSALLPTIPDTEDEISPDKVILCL
T1 sequence (Q16531 whole entry partner): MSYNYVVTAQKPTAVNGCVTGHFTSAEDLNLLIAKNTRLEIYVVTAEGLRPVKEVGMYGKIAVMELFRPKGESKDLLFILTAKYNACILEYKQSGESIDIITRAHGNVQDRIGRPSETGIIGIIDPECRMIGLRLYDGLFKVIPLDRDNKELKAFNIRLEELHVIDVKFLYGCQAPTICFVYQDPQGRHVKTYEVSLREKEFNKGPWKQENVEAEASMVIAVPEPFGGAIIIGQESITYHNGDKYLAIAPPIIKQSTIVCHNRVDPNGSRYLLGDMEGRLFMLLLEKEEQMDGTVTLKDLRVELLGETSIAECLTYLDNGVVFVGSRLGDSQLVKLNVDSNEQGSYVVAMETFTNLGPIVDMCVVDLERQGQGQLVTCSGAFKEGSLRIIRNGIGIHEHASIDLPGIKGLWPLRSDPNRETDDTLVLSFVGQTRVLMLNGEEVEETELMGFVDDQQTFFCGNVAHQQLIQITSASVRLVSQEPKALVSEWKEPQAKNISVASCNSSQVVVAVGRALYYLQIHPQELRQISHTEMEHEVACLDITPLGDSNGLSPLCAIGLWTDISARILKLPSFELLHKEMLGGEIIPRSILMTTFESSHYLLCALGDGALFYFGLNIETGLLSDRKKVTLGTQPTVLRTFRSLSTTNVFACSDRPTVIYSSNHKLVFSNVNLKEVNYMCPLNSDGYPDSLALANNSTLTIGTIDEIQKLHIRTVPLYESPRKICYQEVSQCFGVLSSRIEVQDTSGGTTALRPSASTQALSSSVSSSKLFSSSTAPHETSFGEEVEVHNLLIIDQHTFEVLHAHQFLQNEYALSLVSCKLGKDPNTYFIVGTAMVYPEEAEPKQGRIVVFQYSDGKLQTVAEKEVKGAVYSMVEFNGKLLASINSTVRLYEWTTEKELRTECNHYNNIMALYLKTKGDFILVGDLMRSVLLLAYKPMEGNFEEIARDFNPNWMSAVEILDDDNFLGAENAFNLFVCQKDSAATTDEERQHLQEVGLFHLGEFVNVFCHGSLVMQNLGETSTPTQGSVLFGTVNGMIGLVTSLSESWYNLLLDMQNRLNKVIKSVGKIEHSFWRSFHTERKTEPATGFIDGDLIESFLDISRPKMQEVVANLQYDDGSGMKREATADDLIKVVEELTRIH
T3 sequence (P62942+O75469 fused P62942:F37V): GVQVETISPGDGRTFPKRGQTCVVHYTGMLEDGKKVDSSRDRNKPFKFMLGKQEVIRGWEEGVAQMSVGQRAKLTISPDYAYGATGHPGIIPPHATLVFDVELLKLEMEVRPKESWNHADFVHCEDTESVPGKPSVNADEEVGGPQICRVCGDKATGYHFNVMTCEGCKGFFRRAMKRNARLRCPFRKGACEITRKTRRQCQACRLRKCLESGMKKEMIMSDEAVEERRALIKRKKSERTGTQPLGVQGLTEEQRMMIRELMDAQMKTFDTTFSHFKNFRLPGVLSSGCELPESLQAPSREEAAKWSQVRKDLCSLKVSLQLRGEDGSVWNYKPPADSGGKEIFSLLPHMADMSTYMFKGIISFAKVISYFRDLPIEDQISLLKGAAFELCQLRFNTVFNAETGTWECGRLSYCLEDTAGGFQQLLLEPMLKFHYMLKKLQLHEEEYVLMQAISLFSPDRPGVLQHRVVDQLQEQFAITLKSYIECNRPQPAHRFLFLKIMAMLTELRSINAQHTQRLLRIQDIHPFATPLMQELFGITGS
T3 sequence (Q96SW2 whole entry partner): as the sequence (Q96SW2 whole entry) above

COc1ccc(OC)c(-n2nnc(C(=O)Nc3cc(Oc4cccc5c4C(=O)N(C4CCC(=O)NC4=O)C5=O)cc(C(C)(C)C)c3)c2C)c1 (stereo not shown) [Compound M4, N-(3-(tert-butyl)-5-((2-(2,6-dioxopiperidin-3-yl)-1,3-dioxoisoindolin-4-yl)oxy)phenyl)-1-(2,5-dimethoxyphenyl)-5-methyl-1H-1,2,3-triazole-4-carboxamide]
GSPT1 Loss at 10 μM (% ± SD) (GSPT1; 10 μM compound, calculated from western blots FIG. 9A): 100 ± 0.1% | activity on GSPT1, fold lower than that of CC-885 (GSPT1; western blot, FIG. 6D-E): ~100 fold | GSPT1 degradation (in words) (GSPT1; western blot, SNU—C4 3xFLAG-PXR KI cells, listed as SJPYT-195): deplete GSPT1 at concentrations much lower than those required to reduce PXR; also recorded: most potent inducer of GSPT1 degradation | CC50 at 72 h [1]: 440 ± 80 nM | fold difference in CC50 values (CC-885 vs SJPYT-195) [2]: 133 fold | inhibition at 10 µM (PXR [3]; read-out: Antagonist (% inhibition at 10 μM)): 96% | IC50 (PXR [3]; read-out: Antagonist (IC50/μM)): 0.94 ± 0.2 µM | HiBiT signal (screen of PXR ligand-CRBN ligand compounds) (HiBiT-FKBP12^F36V-PXR): reduced HiBiT signal | reduction of PXR RNA (PXR RNA; 5 μM, 12 h): negligible reduction | PXR RNA level (PXR RNA; time-course, FIG. 5C): drastically reduced PXR RNA level | cytotoxicity in cells overexpressing GSPT1^G575N [4]: partially resistant | reduction of PXR protein (PXR [5]; 5 μM, 12 h): ~50% | maximum degradation efficacy (DNax) of endogenous PXR protein (PXR [5]; SNU—C4 3xFLAG-PXR KI cells, FIG. 4B): 85% ±1 | DC50 (PXR [5]; SNU—C4 3xFLAG-PXR KI cells, FIG. 4B, read-out: half maximal degradation concentration (DC50) of endogenous PXR protein): 310 ± 130 nM | kinetics of PXR protein decrease (PXR [5]; time-course, FIG. 5A-B): quite slow | PXR protein level (in words) (PXR [5]; western blot, SNU—C4 3xFLAG-PXR KI cells): reduced PXR to a greater extent than CC-885
